Source: article PMC7450057, “Enhancing intracellular accumulation and target engagement of PROTACs with reversible covalent chemistry” (Nature Communications, 2020)
pIC50, pKd: −log10 of the molar value. Several values for one entry are separate records, joined by “and”; a condition that tells them apart may be missing. Identical values can stand only once.

Legend:
[1] = tested on: Maver-1; experiment: IC50 in MCL cell lines (Supplementary Table 2), Maver-1; conditions: for Cell Viability (%): Maver-1 cells, replicate wells
[2] = target: T1, full-length BTK protein (Homo sapiens, UniProt Q06187); experiment: BTK binding assay (Kd, Eurofins DiscoverX); conditions: for pKd: full-length BTK, duplicates
T1 construct: Kd was measured using the full-length BTK protein by Eurofins DiscoverX; T7 phage fusion or DNA tag for qPCR (generic vendor protocol); purchased Eurofins DiscoverX
Experimental: The dissociation equilibrium constant Kd was measured using the full-length BTK protein by Eurofins DiscoverX according to the following protocol: kinase-tagged T7 phage strains were prepared in an E. coli host derived from the BL21 strain. E. coli were grown to log-phase and infected with T7 phage and incubated with shaking at 32 °C until lysis. The lysates were centrifuged and filtered to remove cell debris. The remaining kinases were produced in HEK-293 cells and subsequently tagged with DNA for qPCR detection. […] The liganded beads were blocked with excess biotin and washed with blocking buffer (SeaBlock (Pierce), 1% BSA, 0.05% Tween 20, 1 mM DTT) to remove unbound ligand and to reduce non-specific binding. […] Test compounds were prepared as 111X stocks in 100% DMSO. […] The compounds were then diluted directly into the assays such that the final concentration of DMSO was 0.9%. All reactions performed in polypropylene 384-well plate. Each was a final volume of 0.02 mL. […] The kinase concentration in the eluates was measured by qPCR. For kinase-binding constant determination, an 11-point 3-fold serial dilution of each test compound was prepared in 100% DMSO at 100x final test concentration and subsequently diluted to 1x in the assay (final DMSO concentration = 1%). […] Binding constants (Kd values) were calculated with a standard dose-response curve using the Hill equation: Response=Background+Signal−Background/1+KdHillSlope/Dose^HillSlope
The Hill Slope was set to −1. Curves were fitted using a non-linear least square fit with the Levenberg-Marquardt algorithm.

[3] = target: T2, NanoLuc-CRBN fusion (Homo sapiens, UniProt Q96SW2); experiment: NanoBRET CRBN in-cell target engagement assay; type: cell-based; conditions: for NanoBRET(%): Figure 3b; for NanoBRET(%) / pIC50: triplicates; for pIC50: HEK-293 cells, CRBN tracer 0.5 µM, read-out: CRBN target engagement IC50,TE; for K′P,D (relative intracellular accumulation coefficient): Kd (CRBN)/IC50,TE (CRBN)
T2 construct: host or cells: HEK 293T/17
Method in brief: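 Live cells expressing NanoLuc-CRBN with tracer and compound were incubated 2 h, then given Nano-Glo substrate plus extracellular NanoLuc inhibitor for 3 min at room temperature.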

[4] = target: BTK (Mus musculus, UniProt P35991); experiment: BTK degradation in mouse B-cell lymphoma cell line derived from Eu-Myc mice; type: cell-based; design: endogenous in cells; host or cells: B cell lymphoma cell line derived from Eu-Myc mice; conditions: for BTK quantification (anti-BTK / anti-β-actin): Supplementary Figure 10, replicates, DMSO about 100
Experimental: MOLM-14 cell line was obtained from Dr. Conneely at Baylor College of Medicine, and the Mino cells were purchased from the American Type Culture Collection (ATCC, Cat. No. CRL-3000). Both cell lines were cultured in RPMI 1640 medium (Thermo Fisher Scientific, Cat. No. MT10040CV) supplemented with 10% fetal bovine serum (GE Healthcare, Cat. No. SH30071.03) and 1% Pen/Strep (Thermo Fisher Scientific, Cat. No. 15140163). The wild-type and C481S BTK XLA cell lines were gifts from Dr. Woyach at The Ohio State University and were cultured in RPMI 1640 medium with 15% fetal bovine serum, 1% Pen/Strep, and 1.0 µg/ml puromycin (Thermo Fisher Scientific, Cat. No. A1113803). HEK 293T/17 cells were purchased from ATCC (Cat. No. CRL-11268) were maintained in DMEM (Thermo Fisher Scientific, Cat. No. MT10013CV) with 10% fetal bovine serum and 1% Pen-Strep. The B cell lymphoma cell line derived from Eu-Myc mice was a gift from Dr. Yulin Li at Houston Methodist Research Institute and cultured in RPMI 1640 medium supplemented with 15% (v/v) fetal bovine serum (FBS), 100 U/mL penicillin, 100 μg/mL streptomycin, and 0.05 mM beta-mercaptoethanol and puromycin (1 μg/mL). Cells were grown at 37 °C with 5% CO2.
The collected cells and spleen tissues were lysed in RIPA lysis buffer (50 mM Tris-HCl, pH 7.4, 150 mM NaCl, 1% NP-40, 0.5% sodium deoxycholate, 0.1% SDS) supplemented with Halt™ Protease and Phosphatase Inhibitor Cocktail (Thermo Fisher Scientific, Cat. No. PI78440) immediately before use. Lysates were centrifuged at 15,000 × g for 10 min at 4 °C and the supernatant was quantified for total protein concentration using the Pierce BCA Protein Assay (Thermo Fisher Scientific, Cat. No. 23225). Thirty micrograms of protein were loaded onto sodium dodecyl sulfate−polyacrylamide gel for electrophoresis (Bio-Rad) and transferred onto PVDF membranes (Millipore, Cat. No. IPVH00010). […] Imaging was performed using the ECL Prime chemiluminescent western blot detection reagents (GE Healthcare, Cat. No. RPN2232) by visualization of the blots to X-Ray film or with an Imager (Kindle Biosciences, Cat. No. D1001). All western blots were subsequently processed and quantified with Imager software. Protein level was normalized to β-actin or GAPDH loading controls.

[5] = BTK_-DTT, compound concentration 0.137 nM

T1 sequence (Q06187 whole entry, the tested form may be a part): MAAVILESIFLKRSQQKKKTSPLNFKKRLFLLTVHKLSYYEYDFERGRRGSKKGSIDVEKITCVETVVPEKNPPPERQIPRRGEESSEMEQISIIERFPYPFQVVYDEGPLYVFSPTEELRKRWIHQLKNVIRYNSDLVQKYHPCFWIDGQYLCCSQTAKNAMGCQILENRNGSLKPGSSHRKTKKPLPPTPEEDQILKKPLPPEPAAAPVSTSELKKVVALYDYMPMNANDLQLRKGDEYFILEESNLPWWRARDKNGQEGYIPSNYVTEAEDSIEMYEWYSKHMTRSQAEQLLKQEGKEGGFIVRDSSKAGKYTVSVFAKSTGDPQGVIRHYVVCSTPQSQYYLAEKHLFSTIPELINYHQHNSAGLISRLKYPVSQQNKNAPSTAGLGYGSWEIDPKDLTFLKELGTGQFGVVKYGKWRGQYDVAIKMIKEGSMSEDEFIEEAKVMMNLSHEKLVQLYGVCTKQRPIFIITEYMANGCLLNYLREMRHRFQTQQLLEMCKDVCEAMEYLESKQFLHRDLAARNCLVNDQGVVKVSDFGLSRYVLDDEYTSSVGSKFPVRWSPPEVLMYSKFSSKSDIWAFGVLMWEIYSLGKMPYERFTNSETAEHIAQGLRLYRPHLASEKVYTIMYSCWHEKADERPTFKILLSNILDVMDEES
BTK, sequence (P35991 whole entry): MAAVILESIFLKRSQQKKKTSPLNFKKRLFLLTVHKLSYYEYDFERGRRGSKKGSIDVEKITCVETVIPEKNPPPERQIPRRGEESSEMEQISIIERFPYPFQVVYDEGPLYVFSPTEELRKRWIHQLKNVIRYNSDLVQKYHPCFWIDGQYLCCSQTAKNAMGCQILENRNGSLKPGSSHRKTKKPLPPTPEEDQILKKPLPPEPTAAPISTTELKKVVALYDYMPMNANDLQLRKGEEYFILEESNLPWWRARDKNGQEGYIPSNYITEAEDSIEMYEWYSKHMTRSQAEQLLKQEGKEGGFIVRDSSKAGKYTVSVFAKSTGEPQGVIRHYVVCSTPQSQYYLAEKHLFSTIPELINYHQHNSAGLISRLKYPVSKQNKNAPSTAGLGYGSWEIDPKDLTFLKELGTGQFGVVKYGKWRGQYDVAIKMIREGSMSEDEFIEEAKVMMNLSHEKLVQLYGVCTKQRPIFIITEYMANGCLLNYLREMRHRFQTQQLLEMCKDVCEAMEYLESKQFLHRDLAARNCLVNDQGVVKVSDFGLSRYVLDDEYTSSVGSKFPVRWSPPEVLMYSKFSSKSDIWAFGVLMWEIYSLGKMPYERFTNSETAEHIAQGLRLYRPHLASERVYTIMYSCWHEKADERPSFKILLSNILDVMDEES
T2 sequence (Q96SW2 whole entry, the tested form may be a part): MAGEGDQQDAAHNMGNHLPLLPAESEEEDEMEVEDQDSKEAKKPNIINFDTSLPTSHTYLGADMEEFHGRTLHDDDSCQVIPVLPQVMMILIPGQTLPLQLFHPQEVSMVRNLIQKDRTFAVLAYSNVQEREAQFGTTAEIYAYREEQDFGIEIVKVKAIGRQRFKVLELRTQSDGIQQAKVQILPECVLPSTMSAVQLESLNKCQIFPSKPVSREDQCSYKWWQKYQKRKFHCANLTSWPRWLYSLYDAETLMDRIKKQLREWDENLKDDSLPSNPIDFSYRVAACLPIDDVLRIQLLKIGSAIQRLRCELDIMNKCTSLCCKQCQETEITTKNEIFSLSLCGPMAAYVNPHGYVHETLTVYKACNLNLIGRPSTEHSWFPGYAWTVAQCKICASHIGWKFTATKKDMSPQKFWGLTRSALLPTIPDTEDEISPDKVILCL
T2 sequence (Q16531 whole entry partner, the tested form may be a part): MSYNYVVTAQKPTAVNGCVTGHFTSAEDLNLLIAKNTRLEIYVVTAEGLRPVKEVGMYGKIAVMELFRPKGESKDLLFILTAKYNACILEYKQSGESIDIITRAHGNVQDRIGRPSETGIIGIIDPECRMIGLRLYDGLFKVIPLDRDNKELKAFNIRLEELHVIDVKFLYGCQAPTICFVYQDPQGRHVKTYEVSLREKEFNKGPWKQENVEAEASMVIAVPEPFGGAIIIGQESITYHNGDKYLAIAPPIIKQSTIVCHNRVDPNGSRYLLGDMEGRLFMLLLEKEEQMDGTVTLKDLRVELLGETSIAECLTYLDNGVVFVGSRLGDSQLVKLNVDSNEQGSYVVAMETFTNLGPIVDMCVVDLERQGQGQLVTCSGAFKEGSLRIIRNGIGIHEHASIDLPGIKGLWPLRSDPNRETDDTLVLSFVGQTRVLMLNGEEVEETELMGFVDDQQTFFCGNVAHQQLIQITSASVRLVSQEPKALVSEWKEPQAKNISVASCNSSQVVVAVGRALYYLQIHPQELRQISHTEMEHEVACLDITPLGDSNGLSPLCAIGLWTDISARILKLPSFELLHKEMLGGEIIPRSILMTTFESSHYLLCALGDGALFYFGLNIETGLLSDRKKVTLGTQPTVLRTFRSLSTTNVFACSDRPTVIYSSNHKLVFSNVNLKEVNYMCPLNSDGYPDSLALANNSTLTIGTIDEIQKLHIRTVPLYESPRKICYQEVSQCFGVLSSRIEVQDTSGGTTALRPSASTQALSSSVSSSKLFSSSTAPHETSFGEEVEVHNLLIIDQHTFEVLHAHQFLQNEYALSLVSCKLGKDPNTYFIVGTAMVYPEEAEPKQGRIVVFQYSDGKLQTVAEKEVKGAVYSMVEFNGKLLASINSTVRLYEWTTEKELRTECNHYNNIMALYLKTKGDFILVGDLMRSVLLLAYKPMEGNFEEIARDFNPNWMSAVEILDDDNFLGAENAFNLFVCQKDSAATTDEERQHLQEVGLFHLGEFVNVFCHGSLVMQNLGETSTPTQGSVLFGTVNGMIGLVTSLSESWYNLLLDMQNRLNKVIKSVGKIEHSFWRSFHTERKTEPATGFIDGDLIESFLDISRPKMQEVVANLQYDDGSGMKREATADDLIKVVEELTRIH

## CN(CCCNC(=O)CNc1cccc2c1C(=O)N(C1CCC(=O)NC1=O)C2=O)C(C)(C)C=C(C#N)C(=O)N1CCC[C@@H](n2nc(-c3ccc(Oc4ccccc4)cc3)c3c(N)ncnc32)C1 (stereo partly drawn) [RC-1]
[1]; Maver-1, triplicates
  pIC50: 5.48
[1]; 1.25E-06 M
  Cell Viability (%): 72.3477% and 75.344% and 75.6032%
[1]; 1.56E-07 M
  Cell Viability (%): 94.303% and 94.8872% and 90.9031%
[1]; 2.50E-06 M
  Cell Viability (%): 56.7361% and 58.5739% and 54.2977%
[1]; 3.13E-07 M
  Cell Viability (%): 94.0011% and 92.8623% and 88.8158%
[1]; 5.00E-06 M
  Cell Viability (%): 44.682% and 45.5221% and 44.0945%
[1]; 6.25E-07 M
  Cell Viability (%): 91.7892% and 94.3523% and 87.1487%
[1]; 7.81E-08 M
  Cell Viability (%): 97.5389% and 95.4976% and 96.2656%
[2]; BTK_+DTT, compound concentration 0.00491 nM
  Signal: 2.20E-05 and 2.17E-05
[2]; BTK_+DTT, compound concentration 0.0147 nM
  Signal: 1.92E-05 and 1.81E-05
[2]; BTK_+DTT, compound concentration 0.0442 nM
  Signal: 2.14E-05 and 1.73E-05
[2]; BTK_+DTT, compound concentration 0.133 nM
  Signal: 2.05E-05 and 2.18E-05
[2]; BTK_+DTT, compound concentration 0.398 nM
  Signal: 2.41E-05 and 2.16E-05
[2]; BTK_+DTT, compound concentration 1.19 nM
  Signal: 1.65E-05 and 1.58E-05
[2]; BTK_+DTT, compound concentration 3.58 nM
  Signal: 1.59E-05 and 1.74E-05
[2]; BTK_+DTT, compound concentration 10.7 nM
  Signal: 1.27E-05 and 1.43E-05
[2]; BTK_+DTT, compound concentration 32.2 nM
  Signal: 8.15E-06 and 9.04E-06
[2]; BTK_+DTT, compound concentration 96.7 nM
  Signal: 2.36E-06 and 3.19E-06
[2]; BTK_+DTT, compound concentration 290 nM
  Signal: 6.97E-07 and 7.79E-07
[2]; BTK_-DTT, compound concentration 0.0152 nM
  Signal: 1.51E-05 and 1.47E-05
[2]; BTK_-DTT, compound concentration 0.0457 nM
  Signal: 1.49E-05 and 1.51E-05
[2]; [5]
  Signal: 1.65E-05 and 2.03E-05
[2]; BTK_-DTT, compound concentration 0.412 nM
  Signal: 1.54E-05 and 1.43E-05
[2]; BTK_-DTT, compound concentration 1.23 nM
  Signal: 1.12E-05 and 1.17E-05
[2]; BTK_-DTT, compound concentration 3.7 nM
  Signal: 1.02E-05 and 1.17E-05
[2]; BTK_-DTT, compound concentration 11.1 nM
  Signal: 6.96E-06 and 6.70E-06
[2]; BTK_-DTT, compound concentration 33.3 nM
  Signal: 2.36E-06 and 3.11E-06
[2]; BTK_-DTT, compound concentration 100 nM
  Signal: 5.28E-07 and 7.20E-07
[2]; BTK_-DTT, compound concentration 300 nM
  Signal: 2.64E-07 and 1.61E-07
[2]; absence of DTT in the buffer
  pKd: 8.19
[3]; 1.00E-05 M
  NanoBRET(%): 21.6334% and 26.3618%
[3]; 1.60E-08 M
  NanoBRET(%): 89.0253% and 93.1823% and 91.5749%
[3]; 3.20E-09 M
  NanoBRET(%): 81.4353% and 98.6889%
[3]; 4.00E-07 M
  NanoBRET(%): 23.5104% and 43.7578% and 36.9762%
[3]; 8.00E-08 M
  NanoBRET(%): 72.3946% and 83.8988% and 65.1002%
[3]
  pIC50: 6.60
  K′P,D (relative intracellular accumulation coefficient): 16.8
[4]; 8 nM
  BTK quantification (anti-BTK / anti-β-actin): 63.6968 and 56.9893
[4]; 40 nM
  BTK quantification (anti-BTK / anti-β-actin): 41.0784 and 35.9122
[4]; 200 nM
  BTK quantification (anti-BTK / anti-β-actin): 29.8182 and 40.565
[4]; dosed up to 25 µM, 24 h
  maximum BTK degradation: 30–40%

## CN(CCCNC(=O)CNc1cccc2c1C(=O)N(C1CCC(=O)NC1=O)C2=O)CCCC(=O)N1CCCC(n2nc(-c3ccc(Oc4ccccc4)cc3)c3c(N)ncnc32)C1 (stereo not drawn) [RNC-1]
[2]; BTK_+DTT, compound concentration 0.0457 nM
  Signal: 1.67E-05 and 2.04E-05
[2]; BTK_+DTT, compound concentration 0.137 nM
  Signal: 2.07E-05
[2]; BTK_+DTT, compound concentration 0.412 nM
  Signal: 1.78E-05 and 1.97E-05
[2]; BTK_+DTT, compound concentration 1.23 nM
  Signal: 1.66E-05 and 1.94E-05
[2]; BTK_+DTT, compound concentration 3.7 nM
  Signal: 9.43E-06 and 1.17E-05
[2]; BTK_+DTT, compound concentration 11.1 nM
  Signal: 5.40E-06 and 5.82E-06
[2]; BTK_+DTT, compound concentration 33.3 nM
  Signal: 1.59E-06 and 1.81E-06
[2]; BTK_+DTT, compound concentration 100 nM
  Signal: 4.37E-07 and 5.02E-07
[2]; BTK_+DTT, compound concentration 300 nM
  Signal: 2.01E-07 and 2.30E-07
[2]; BTK_+DTT, compound concentration 900 nM
  Signal: 1.47E-07 and 2.72E-07
[2]; BTK_+DTT, compound concentration 2700 nM
  Signal: 1.45E-07 and 2.02E-07
[2]; [5]
  Signal: 2.06E-05
[2]; standard assay buffer in the presence of DTT (6 mM) (DiMe compounds: BTK_+DTT per Supplementary Data 1)
  pKd: 8.33
[3]; 1.60E-08 M
  NanoBRET(%): 102.085% and 102.001%
[3]; 2.00E-06 M
  NanoBRET(%): 49.8083% and 51.4483% and 59.2693%
[3]; 3.20E-09 M
  NanoBRET(%): 100.05% and 108.808% and 104.469%
[3]; 4.00E-07 M
  NanoBRET(%): 67.9857% and 66.2855% and 79.0983%
[3]; 8.00E-08 M
  NanoBRET(%): 74.8615% and 82.1247%
[3]
  pIC50: 5.77
  K′P,D (relative intracellular accumulation coefficient): 1.1
[3]; from K′P,D values, CRBN (Table 2)
  intracellular accumulation of RC-1 relative to the compound: 16 fold
[3]; ratio compound/RC-1
  CRBN target engagement IC50 relative to that of RC-1: 7 fold
[4]; 8 nM
  BTK quantification (anti-BTK / anti-β-actin): 97.1575 and 95.3789
[4]; 40 nM
  BTK quantification (anti-BTK / anti-β-actin): 69.0679 and 73.2452
[4]; 200 nM
  BTK quantification (anti-BTK / anti-β-actin): 33.5661 and 27.9942
